US20240239811A1, “5-(5-(PIPERIDIN-4-YL)THIENO[3,2-C]PYRAZOL-2-YL]INDAZOLE DERIVATIVES AND RELATED COMPOUNDS AS MODULATORS FOR SPLICING NUCLEIC ACIDS AND FOR THE T” (REMIX THERAPEUTICS INC., priority 2020, published 2024)

Tests used:
Type in all cases: cell-based
[1] = system: HTT mRNA; assay: Splicing assay (RT-qPCR) monitoring HTT splice variants, canonical (CJ) and alternative (AJ) junction; conditions: 50% response, A673 or K562 cell line, 24 hours; for IC50: decrease in CJ mRNA; for AC50: increase in AJ mRNA
Description: (§1) Compounds described herein were used to modulate RNA transcript abundance in cells. The expression of a target mRNA was measured by detecting the formation of an exon-exon junction in the canonical transcript (CJ). A compound mediated exon-inclusion event was detected by observing an increase in formation of a new junction with an alternative exon (AJ). Real-time qPCR assays were used to detect these splicing switches and interrogate the potency of various compounds towards different target genes. A high-throughput real time quantitative PCR (RT-qPCR) assay was developed to measure these two isoforms of the mRNA (CJ and AJ) for an exemplary gene, HTT, together with a control housekeeping gene, GAPDH or GUSB or PPIA, used for normalization. Briefly, the A673 or K562 cell line was treated with various compounds described herein (e.g., compounds of Formula (I)). After treatment, the levels of the HTT mRNA targets were determined from each sample of cell lysate by cDNA synthesis followed by qPCR.
• Cells-to-CT 1-step kit: ThermoFisher A25602, Cells-to-CT lysis reagent: ThermoFisher 4391851C, TaqMan™ Fast Virus 1-Step Master Mix: ThermoFisher 4444436 • GAPDH: VIC-PL, ThermoFisher 4326317E (Assay: Hs99999905_ml)—used for K562/suspension cell lines • GUSB: VIC-PL, ThermoFisher 4326320E (Assay: Hs99999908_ml)—used for K562/suspension cell lines • PPIA: VIC-PL, ThermoFisher 4326316E (Assay: Hs99999904_ml)—used for A673/adherent cell lines
(§2) The A673 cell line was cultured in DMEM with 10% FBS. Cells were diluted with full growth media and plated in a 96-well plate (15,000 cells in 100ul media per well). The plate was incubated at 37° C. with 5% CO2 for 24 hours to allow cells to adhere. An 11-point 3-fold serial dilution of the compounds was made in DMSO then diluted in media in an intermediate plate. Compounds were transferred from the intermediate plate to the cell plate with the top dose at a final concentration of 10 uM in the well. Final DMSO concentration was kept at or below 0.25%. The cell plate was returned to the incubator at 37° C. with 5% CO2 for an additional 24 hours.
(§3) The K562 cell line was cultured in IMDM with 10% FBS. For K562, cells were diluted with full growth media and plated in either a 96-well plate (50,000 cells in 50 uL media per well) or a 384-well plate (8,000-40,000 cells in 45 uL media per well). An 11-point 3-fold serial dilution of the compounds were made in DMSO then diluted in media in an intermediate plate. Compound was transferred from the intermediate plate to the cell plate with the top dose at a final concentration of 10 uM in the well. Final DMSO concentration was kept at or below 0.25%. Final volume was 100 uL for 96-well plate and 50 uL for 384-well plate. The cell plate was then placed in an incubator at 37° C. with 5% CO2 for 24 hours.
The cells were then gently washed with 50 uL-100 uL cold PBS before proceeding to addition of lysis buffer. 30 uL-50 uL of room temperature lysis buffer with DNAse I (and optionally RNAsin) was added to each well. Cells were shaken/mixed thoroughly at room temperature for 5-10 minutes for lysis to take place and then 3 uL-5 uL of room temperature stop solution was added and wells were shaken/mixed again. After 2-5 minutes, the cell lysate plate was transferred to ice for RT-qPCR reaction setup. The lysates could also be frozen at −80° C. for later use.
In some cases, a direct lysis buffer was used. An appropriate volume of 3X lysis buffer (10 mM Tris, 150 mM NaCl, 1.5%-2.5% Igepal and 0.1-1 U/uL RNAsin, pH 7.4) was directly added to either K562 or A673 cells in media and mixed by pipetting 3 times. The plates were then incubated at room temperature with shaking/rocking for 20-50 minutes to allow for lysis to take place. After this time, the cell lysate plate was transferred to ice to set up for the RT-qPCR reactions. The lysates could also be frozen at −80° C. for later use. […]

[2] = system: SMN2 CJ mRNA; assay: Gene panel canonical junction qPCR assay, SMN2; conditions: Table 6, decrease in CJ mRNA, read-out: SMN2 IC50 (decrease in CJ mRNA levels)
Description: as §1, §2, §3
(§4) The data analysis was performed by first determining the ΔCt vs the housekeeper gene. This ΔCt was then normalized against the DMSO control (ΔΔCt) and converted to RQ (relative quantification) using the 2^(−ΔΔCt) equation. The RQ were then converted to a percentage response by arbitrarily setting an assay window of 3.5 ΔCt for HTT-CJ and an assay window of 9 ΔCt for HTT-AJ. […] The percentage response was then fitted to the 4 parametric logistic equation to evaluate the concentration dependence of compound treatment. The increase in AJ mRNA is reported as AC50 (compound concentration having 50% response in AJ increase) while the decrease in CJ mRNA levels is reported as IC50 (compound concentration having 50% response in CJ decrease).
(§5) Additional studies were carried out for a larger panel of genes using the protocol provided above. The junction between flanking upstream and downstream exons was used to design canonical junction qPCR assays. At least one of the forward primer, reverse primer or the CY5-labeled 5′ nuclease probe (with 3′ quencher such as ZEN/Iowa Black FQ) was designed to overlap with the exon junction to capture the CJ mRNA transcript. BLAST was used to confirm the specificity of the probeset and parameters such as melting temperature, GC content, amplicon size, and primer dimer formation are considered during their design. Data for the decrease in CJ mRNA levels for three exemplary genes (HTT, SMN2, and Target C) analyzed in this panel are reported as IC50 (compound concentration having […] in CJ decrease).

[3] = system: HTT CJ mRNA; assay: Gene panel canonical junction qPCR assay, HTT; conditions: Table 6, decrease in CJ mRNA, read-out: HTT IC50 (decrease in CJ mRNA levels)
Description: as §1, §2, §3, §4, §5

[4] = system: Target C CJ mRNA; assay: Gene panel canonical junction qPCR assay, Target C; conditions: Table 6, decrease in CJ mRNA, read-out: Target C IC50 (decrease in CJ mRNA levels)
Description: as §1, §2, §3, §4, §5

## CN1CCCC2(CCN2c2cc3sc(-c4cc(F)c5nn(C)cc5c4)nc3s2)C1 (stereo not drawn) [Compound 203, 1-[2-(7-fluoro-2-methylindazol-5-yl)thieno[2,3-d][1,3]thiazol-5-yl]-6-methyl-1,6-diazaspiro[3.5]nonane]
[1]
  IC50: > 10000 nM
  AC50: > 10000 nM
[2]
  IC50: 1000 to 10000 nM
[3]
  IC50: > 10000 nM
[4]
  IC50: > 10000 nM

## Cn1cc2cc(-c3cc4cn(C5CCNCC5)nc4s3)ncc2n1 [Compound 214]
[1]
  IC50: 1000 to 10000 nM
  AC50: 100 to 1000 nM
[2]
  IC50: 100 to 1000 nM
[3]
  IC50: 1000 to 10000 nM
[4]
  IC50: 1000 to 10000 nM

## COc1c(-c2nc3sc(C4CCNCC4)cc3s2)cc(F)c2nn(C)cc12 [Compound 237, 7-fluoro-4-methoxy-2-methyl-5-[5-(piperidin-4-yl)thieno[2,3-d][1,3]thiazol-2-yl]indazole]
[1]
  IC50: > 10000 nM
  AC50: > 10000 nM
[2]
  IC50: > 10000 nM
[3]
  IC50: > 10000 nM
[4]
  IC50: > 10000 nM

## Cn1cc2c(F)cc(-c3nc4sc(C5CCNCC5)cc4s3)cc2n1 [Compound 131, 4-fluoro-2-methyl-6-[5-(piperidin-4-yl)thieno[2,3-d][1,3]thiazol-2-yl]indazole]
[1]
  IC50: 1000 to 10000 nM
  AC50: 1000 to 10000 nM
[2]
  IC50: 1000 to 10000 nM
[3]
  IC50: 1000 to 10000 nM
[4]
  IC50: 1000 to 10000 nM

## Cc1cc(-c2nc3sc(C4CCNCC4)cc3s2)cc2cn(C)nc12 [Compound 238, 2,7-dimethyl-5-[5-(piperidin-4-yl)thieno[2,3-d][1,3]thiazol-2-yl]indazole]
[1]
  IC50: < 100 nM
  AC50: < 100 nM
[2]
  IC50: < 100 nM
[3]
  IC50: < 100 nM
[4]
  IC50: 100 to 1000 nM

## Cn1cc2cc(-c3nc4sc(C5CCNCC5)cn4n3)cc(F)c2n1 [Compound 103, 7-fluoro-2-methyl-5-[5-(piperidin-4-yl)-[1,2,4]triazolo[3,2-b][1,3]thiazol-2-yl]indazole]
[1]
  IC50: > 10000 nM
  AC50: > 10000 nM
[2]
  IC50: > 10000 nM
[3]
  IC50: > 10000 nM
[4]
  IC50: > 10000 nM

## COc1c(-c2cc3cn(C4CCNCC4)nc3s2)cc(F)c2nn(C)cc12 [Compound 224]
[1]
  IC50: > 10000 nM
  AC50: > 10000 nM
[2]
  IC50: > 10000 nM
[3]
  IC50: > 10000 nM
[4]
  IC50: > 10000 nM

## Cc1cn2nc(-n3cc4sc(C5CCNCC5)cc4n3)nc2c(C)n1 [Compound 170]
[1]
  IC50: 1000 to 10000 nM
  AC50: 1000 to 10000 nM
[2]
  IC50: 1000 to 10000 nM
[3]
  IC50: 1000 to 10000 nM
[4]
  IC50: 1000 to 10000 nM

## CN(c1cc2sc(-c3ccc(-c4cn[nH]c4)cc3O)nc2s1)[C@@H]1C[C@H]2CC[C@@H](C1)N2 [Compound 191, 2-{5-[(1R,3R,5S)-8-azabicyclo[3.2.1]octan-3-yl(methyl)amino]thieno[2,3-d][1,3]-thiazol-2-yl}-5-(1H-pyrazol-4-yl)phenol]
[1]
  IC50: > 10000 nM
  AC50: > 10000 nM
[2]
  IC50: > 10000 nM
[3]
  IC50: > 10000 nM
[4]
  IC50: > 10000 nM

## Cn1cc2cc(-c3cc4cn(C5CNC5)nc4s3)cc(F)c2n1 [Compound 184]
[1]
  IC50: 1000 to 10000 nM
  AC50: 1000 to 10000 nM
[2]
  IC50: 100 to 1000 nM
[3]
  IC50: 1000 to 10000 nM
[4]
  IC50: > 10000 nM

## CC1CN(c2cc3sc(-c4cc(F)c5nn(C)cc5c4)nc3s2)CCN1 (stereo not drawn) [Compound 135, 7-fluoro-2-methyl-5-[5-(3-methylpiperazin-1-yl)thieno[2,3-d][1,3]thiazol-2-yl]indazole]
[1]
  IC50: 100 to 1000 nM
  AC50: 100 to 1000 nM
[2]
  IC50: < 100 nM
[3]
  IC50: 100 to 1000 nM
[4]
  IC50: 100 to 1000 nM

## Cc1nc2c(F)cc(-n3cc4cc(C5CCNCC5)sc4n3)cc2o1 [Compound 157]
[1]
  IC50: 100 to 1000 nM
  AC50: 100 to 1000 nM
[2]
  IC50: < 100 nM
[3]
  IC50: 100 to 1000 nM
[4]
  IC50: 100 to 1000 nM

## Cc1cn2cc(-n3cc4cc(C5CCNCC5)sc4n3)ncc2n1 [Compound 158]
[1]
  IC50: 100 to 1000 nM
  AC50: 100 to 1000 nM
[2]
  IC50: 100 to 1000 nM
[3]
  IC50: 100 to 1000 nM
[4]
  IC50: 100 to 1000 nM

## Cn1cc2cc(-c3cc4nn(C5CCNCC5)cc4s3)cc(F)c2n1 [Compound 121, 7-fluoro-2-methyl-5-[2-(piperidin-4-yl)thieno[3,2-c]pyrazol-5-yl]indazole]
[1]
  IC50: 100 to 1000 nM
  AC50: 100 to 1000 nM
[2]
  IC50: < 100 nM
[3]
  IC50: 100 to 1000 nM

## Cn1cc2cc(-n3cc4sc(C5CCNCC5)cc4n3)ccc2n1 [Compound 100, 2-methyl-5-[5-(piperidin-4-yl)thieno[3,2-c]pyrazol-2-yl]indazole]
[1]
  AC50: 1000 to 10000 nM
[4]
  IC50: > 10000 nM

## Cc1cn2nc(-n3cc4cc(C5CCNCC5)sc4n3)cc(C)c2n1 [Compound 110, 4-(2-[2,8-dimethylimidazo[1,2-b]pyridazin-6-yl]thieno[2,3-c]pyrazol-5-yl) piperidine]
[1]
  IC50: 100 to 1000 nM
  AC50: 100 to 1000 nM
[2]
  IC50: < 100 nM
[3]
  IC50: 100 to 1000 nM

## Cn1cc2cc(-c3cc4cn([C@H]5CCNC[C@@H]5F)nc4s3)cc(F)c2n1 [Compound 190]
[1]
  IC50: 100 to 1000 nM
  AC50: 100 to 1000 nM
[3]
  IC50: 100 to 1000 nM
